In PubChem BioAssay (NCI):
“And” between values parts separate entries of the source, which are not always exact repeats. Equal values may be shown once.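 Dose response: 5 concentrations. Exposure: 48 h. Format: 96-well plates. Endpoint: linear interpolation; highest concentration if not reached. The concentration for 50% growth inhibition is given as GI50. TGI is the concentration that stops growth completely.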

How the values were obtained:
Assay in all cases: NCI-60 cell line screen, 48 h; in the data active = GI50 below about 0.43 µM; inactive = the rest
U251 CNS = test system: U251 CNS
HCT-15 colon = test system: HCT-15 colon
CCRF-CEM leukemia = test system: CCRF-CEM leukemia
EKVX NSCLC = test system: EKVX NSCLC
SN12C renal = test system: SN12C renal
KM12 colon = test system: KM12 colon
NCI-H23 lung = test system: NCI-H23 lung
A498 renal = test system: A498 renal
OVCAR-4 ovarian = test system: OVCAR-4 ovarian
SK-MEL-2 melanoma = test system: SK-MEL-2 melanoma

CC1=CCCC2C(C=O)(C1)CC(C)C2(CO)CC/C(=C/CO)CO (stereo unspecified)
> 100 µM: TGI (U251 CNS) | TGI (HCT-15 colon) | TGI (CCRF-CEM leukemia) | TGI (EKVX NSCLC) | TGI (SN12C renal) | TGI (KM12 colon) | TGI (NCI-H23 lung) | TGI (A498 renal)

CN(N)c1nc(N)c(C#N)c(C#N)c1C#N
> 10 µM: TGI (U251 CNS) | TGI (HCT-15 colon) | TGI (CCRF-CEM leukemia) | TGI (OVCAR-4 ovarian) | TGI (SN12C renal) | TGI (KM12 colon) | TGI (NCI-H23 lung)

O=C1N=C(Nc2nc(-c3csc(NC4=NC(=O)/C(=C\c5ccccc5)S4)n3)cs2)S/C1=C/c1ccccc1
inactive: GI50 (U251 CNS) 6.34 µM | GI50 (HCT-15 colon) 11.2 µM | GI50 (EKVX NSCLC) 12.7 µM | GI50 (SK-MEL-2 melanoma) > 50 µM | GI50 (SN12C renal) 5.64 µM | GI50 (KM12 colon) 11.2 µM | GI50 (NCI-H23 lung) 17.6 µM | GI50 (A498 renal) > 50 µM
20.6 µM: TGI (SN12C renal)
> 50 µM: TGI (U251 CNS) | TGI (HCT-15 colon) | TGI (EKVX NSCLC) | TGI (SK-MEL-2 melanoma) | TGI (KM12 colon) | TGI (NCI-H23 lung) | TGI (A498 renal)

COc1ccc2c(c1)CN1CCc3c(cc(OC)c(OC)c3OC)C1C2 (stereo unspecified)
> 100 µM: TGI (U251 CNS) | TGI (HCT-15 colon) | TGI (CCRF-CEM leukemia) | TGI (EKVX NSCLC) | TGI (SK-MEL-2 melanoma) | TGI (OVCAR-4 ovarian) | TGI (SN12C renal) | TGI (NCI-H23 lung)

C1=CCCC=CCC1.C[PH+](C)C.C[PH+](C)C.C[PH+](C)C.[Cl-].[Ir]
inactive: GI50 (U251 CNS) 46.2 µM | GI50 (HCT-15 colon) > 100 µM | GI50 (CCRF-CEM leukemia) 19.4 µM | GI50 (EKVX NSCLC) 76.1 µM | GI50 (SK-MEL-2 melanoma) 23.4 µM | GI50 (OVCAR-4 ovarian) 67.8 µM | GI50 (SN12C renal) 82.6 µM | GI50 (KM12 colon) 43.6 µM | GI50 (NCI-H23 lung) > 100 µM
71.7 µM: TGI (CCRF-CEM leukemia)
> 100 µM: TGI (U251 CNS) | TGI (HCT-15 colon) | TGI (EKVX NSCLC) | TGI (OVCAR-4 ovarian) | TGI (SN12C renal) | TGI (KM12 colon) | TGI (NCI-H23 lung)
60.4 µM: TGI (SK-MEL-2 melanoma)

N#CC1=C(N)NC(=O)NC12Nc1ccccc1N2
> 100 µM: TGI (U251 CNS) | TGI (HCT-15 colon) | TGI (EKVX NSCLC) | TGI (SK-MEL-2 melanoma) | TGI (OVCAR-4 ovarian) | TGI (SN12C renal) | TGI (KM12 colon) | TGI (NCI-H23 lung) | TGI (A498 renal)
inactive: GI50 (U251 CNS) > 100 µM | GI50 (HCT-15 colon) > 100 µM | GI50 (EKVX NSCLC) > 100 µM | GI50 (SK-MEL-2 melanoma) > 100 µM | GI50 (OVCAR-4 ovarian) > 100 µM | GI50 (SN12C renal) > 100 µM | GI50 (KM12 colon) > 100 µM | GI50 (NCI-H23 lung) > 100 µM | GI50 (A498 renal) > 100 µM

C[C@]12C[C@H](O)[C@H]3[C@@H](CCC4=CC(=O)CC[C@@]43C)[C@@H]1CC[C@@H]2c1csc(-c2ccccc2)n1
> 73.8 µM: TGI (OVCAR-4 ovarian)
> 90.5 µM: TGI (SK-MEL-2 melanoma)
> 100 µM: TGI (HCT-15 colon) | TGI (EKVX NSCLC) | TGI (SN12C renal) | TGI (KM12 colon) | TGI (NCI-H23 lung) | TGI (A498 renal)
> 71.4 µM: TGI (U251 CNS)

N#Cc1cccc(C2C3=C(COC3=O)N(CCO)c3cc4c(cc32)OCO4)c1 (stereo unspecified)
4.14 µM: TGI (A498 renal)
inactive: GI50 (U251 CNS) 2.3 µM | GI50 (HCT-15 colon) 0.971 µM | GI50 (CCRF-CEM leukemia) 1.53 µM | GI50 (EKVX NSCLC) 2.78 µM | GI50 (OVCAR-4 ovarian) 10.9 µM | GI50 (SN12C renal) 3.81 µM | GI50 (KM12 colon) 1.74 µM | GI50 (NCI-H23 lung) 3.58 µM | GI50 (A498 renal) 1.2 µM
> 50 µM: TGI (U251 CNS) | TGI (HCT-15 colon) | TGI (CCRF-CEM leukemia) | TGI (EKVX NSCLC) | TGI (OVCAR-4 ovarian) | TGI (SN12C renal) | TGI (KM12 colon) | TGI (NCI-H23 lung)

O=C1NC2C(O)CCCCC2C12CCCCC2 (stereo unspecified)
> 100 µM: TGI (U251 CNS) | TGI (HCT-15 colon) | TGI (EKVX NSCLC) | TGI (SK-MEL-2 melanoma) | TGI (OVCAR-4 ovarian) | TGI (SN12C renal) | TGI (KM12 colon) | TGI (NCI-H23 lung) | TGI (A498 renal)

COC(=O)CC[C@]12C[C@]13CC[C@]1(C)C4C(C)C[C@]5(CC(C)C(=O)O5)OC4CC1(C)C3CCC2C(C)(C)O (stereo partly specified)
82.6 µM: TGI (SK-MEL-2 melanoma)
> 100 µM: TGI (U251 CNS) | TGI (HCT-15 colon) | TGI (EKVX NSCLC) | TGI (OVCAR-4 ovarian) | TGI (SN12C renal) | TGI (KM12 colon) | TGI (NCI-H23 lung) | TGI (A498 renal)

COc1c(N2CCN(CN3C(=O)C(=Nc4ccc(S(=O)(=O)Nc5ncccn5)cc4)c4cc(Cl)ccc43)C(C)C2)c(F)cc2c(=O)c(C(=O)O)cn(C3CC3)c12 (stereo unspecified)
inactive: GI50 (U251 CNS) 34.8 µM | GI50 (HCT-15 colon) 45.4 µM | GI50 (EKVX NSCLC) 18.9 µM | GI50 (SK-MEL-2 melanoma) 26.6 µM | GI50 (SN12C renal) 10.6 µM | GI50 (KM12 colon) 9.61 µM | GI50 (NCI-H23 lung) 8.22 µM
> 50 µM: TGI (U251 CNS) | TGI (HCT-15 colon) | TGI (EKVX NSCLC) | TGI (SK-MEL-2 melanoma)
18.4 µM: TGI (NCI-H23 lung)
27.5 µM: TGI (SN12C renal)
26.8 µM: TGI (KM12 colon)

COc1cc2cnc3c4cc(OCc5ccccc5)ccc4ccc3c2cc1OC
17.3 µM: TGI (CCRF-CEM leukemia)
75.7 µM: TGI (NCI-H23 lung)
63 µM: TGI (SK-MEL-2 melanoma)
39.8 µM: TGI (OVCAR-4 ovarian)
> 100 µM: TGI (U251 CNS) | TGI (HCT-15 colon) | TGI (EKVX NSCLC) | TGI (SN12C renal) | TGI (KM12 colon)

COC(=O)[C@H](Cc1cn(C)cn1)NC(=O)[C@H](Cc1ccccc1)NC(=O)Nc1cc(C(F)(F)F)cc(C(F)(F)F)c1
24.6 µM: TGI (U251 CNS) | TGI (SN12C renal)
28.2 µM: TGI (KM12 colon)
24.8 µM: TGI (CCRF-CEM leukemia)
33 µM: TGI (NCI-H23 lung)
inactive: GI50 (U251 CNS) 11.9 µM | GI50 (HCT-15 colon) 16.9 µM | GI50 (CCRF-CEM leukemia) 3.9 µM and 8.86 µM | GI50 (SK-MEL-2 melanoma) 17.7 µM | GI50 (OVCAR-4 ovarian) 13.8 µM | GI50 (SN12C renal) 11.7 µM | GI50 (KM12 colon) 13.5 µM | GI50 (NCI-H23 lung) 17.4 µM | GI50 (A498 renal) 15.8 µM
30.1 µM: TGI (A498 renal)
42.4 µM: TGI (HCT-15 colon)
28.5 µM: TGI (OVCAR-4 ovarian)
32.3 µM: TGI (SK-MEL-2 melanoma)
